Key:
rDlP5βR2 = tested on: T1, rDlP5βR2; experiment: NADPH consumption at […] nm, spectrophotometric; format: biochemical, Digitalis lanata; details: 0.2 mM NADPH, 40 °C, substrate 0.01-1.6 mM
T1 construct: gene P5βR2; recombinant in E. coli SoluBL21, pDEST17 vector, His-tagged, IMAC purified; cloned with primers deduced from D. purpurea P5βR2

rDlP5βR1 = target: T2, rDlP5βR1 (Digitalis lanata, UniProt Q6PQJ9); experiment: NADPH consumption at […] nm, spectrophotometric; format: biochemical; details: 0.2 mM NADPH, 40 °C, substrate 0.01-1.6 mM
T2 construct: recombinant in E. coli, pQE30 vector (Herl et al. 2006), His-tagged, IMAC purified
T2 sequence (Q6PQJ9 whole entry): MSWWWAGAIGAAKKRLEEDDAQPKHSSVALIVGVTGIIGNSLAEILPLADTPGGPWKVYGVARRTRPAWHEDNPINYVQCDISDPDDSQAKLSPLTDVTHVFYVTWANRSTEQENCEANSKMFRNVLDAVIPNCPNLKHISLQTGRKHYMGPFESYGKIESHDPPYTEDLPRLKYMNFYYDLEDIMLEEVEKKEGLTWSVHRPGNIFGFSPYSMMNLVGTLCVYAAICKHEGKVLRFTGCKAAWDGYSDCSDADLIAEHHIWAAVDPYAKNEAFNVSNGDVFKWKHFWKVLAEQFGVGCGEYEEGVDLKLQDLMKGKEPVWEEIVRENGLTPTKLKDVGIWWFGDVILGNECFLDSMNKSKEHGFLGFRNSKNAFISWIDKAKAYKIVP

What does the source list for `C=CC(C)=O` [methyl vinyl ketone]?
Km (rDlP5βR2): 210 µM; Km (rDlP5βR1): 270 µM

For `CC(=O)[C@H]1CC[C@H]2[C@@H]3CCC4=CC(=O)CC[C@]4(C)[C@H]3CC[C@]12C` [progesterone], which Km (rDlP5βR2) is on record?
The Km was 230 µM.

— article PMC8376734, “RNAi-mediated gene knockdown of progesterone 5β-reductases in Digitalis lanata reduces 5β-cardenolide content” (Plant Cell Reports, 2021)
